Measurements from publication PMC10931740, “Uncovering the Role of Hydroxycinnamoyl Transferase in Boosting Chlorogenic Acid Accumulation in Carthamus tinctorius Cells under Methyl Jasmonate Elicitation” (International Journal of Molecular Sciences, 2024).

Test system: T1, CtHCT (CtNewGene_3476), recombinant hydroxycinnamoyl transferase
T1 construct: gene HCT; HXXXD 156-160, DFGWG 379-383
Assay: HPLC product assay, Lineweaver-Burk
Type: biochemical, Carthamus tinctorius
Settings: pH 7.5, 35 °C, 1 mM Cu2+
Source text: HPLC product assay, Lineweaver-Burk on CtHCT (CtNewGene_3476), recombinant hydroxycinnamoyl transferase

| Km (saturating p-coumaroyl-CoA) [µM] | Km (saturating quinic acid) [µM] | SMILES |
| --- | --- | --- |
| 7.11 |  | O=C(O)[C@]1(O)C[C@@H](O)[C@@H](O)[C@H](O)C1 [QA, Quinic acid] |
|  | 32.6 | CC(C)(COP(=O)(O)OP(=O)(O)OC[C@H]1O[C@@H](n2cnc3c(N)ncnc32)[C@H](O)[C@@H]1OP(=O)(O)O)[C@@H](O)C(=O)NCCC(=O)NCCSC(=O)/C=C/c1ccc(O)c(O)c1 [C-COA, Caffeoyl-CoA] |
|  | 9.41 | CC(C)(COP(=O)(O)OP(=O)(O)OC[C@H]1O[C@@H](n2cnc3c(N)ncnc32)[C@H](O)[C@@H]1OP(=O)(O)O)[C@@H](O)C(=O)NCCC(=O)NCCSC(=O)/C=C/c1ccc(O)cc1 [p-CoCOA, p-Coumaroyl-CoA] |
| 18.4 |  | O=C(O)C1=C[C@@H](O)[C@@H](O)[C@H](O)C1 [SkA, Shikimic acid] |
